Experimental data as given in patent publication US20250345295A1, “LMK235 COMPOSITIONS AND METHODS” (UNM Rainforest Innovations, priority 2024, published 2025).
Entries after “also recorded” stand apart in the source; their conditions may differ.

Tests used:
Format in all cases: in vivo, mouse
[1] = system: C57BL/6 mice with TIC model; experiment: von Frey mechanical threshold, TIC trigeminal nerve injury model
Text: Mice underwent the TIC nerve injury surgery, a simplified non-ligation variant of the trigeminal CCI-ION model previously described (Lyons et al., Neuroscience 2015 Jun. 4; 295:126-138; Ma et al., MolBrain 2012 Dec. 28; 5:44). Briefly, mice were anesthetized with isoflurane (3-4%) and a piece of chromic gut suture (2 mm length, 6-0) was placed parallel to the infraorbital nerve (ION) adjacent to the maxillary bone infraorbital fissure at a site just under the lower eyelid. Naïve controls underwent anesthesia only. The chronic trigeminal inflammatory compression (TIC) nerve injury model induces measurable changes in evoked reflexive or higher order pain-like and anxiety-like behaviors but are not otherwise detectable.
The HDAC4/5 inhibitor LMK235 (s.c., 5 mg/kg)(N-[[6-(Hydroxyamino)-6-oxohexyl]oxy]-3,5-dimethyl-benzamide) (Cayman Chemical Co., Ann Arbor, MI) was used at previously published dilutions (Bennett G J, Xie Y K. Pain 1988 April; 33:87-107). […] All treatments with the HDACi (5 mg/kg) or vehicle were given daily for seven consecutive days in the neck scruff (s.c.) for comparisons to naïve control mice.
In the first post-treatment study, male C57B1/6 mice were subcutaneously (s.c.) injected daily for seven days beginning in week 3 following the trigeminal nerve insult induced surgically. Withdrawal thresholds were tested weekly with von Frey fiber stimulation on the snout. One TIC mouse behaving erratically on day 1-7 was eliminated from the study.
In the second post-treatment study, C57B1/6 mice were treated daily for 14 days in week 8 and week 9 after the nerve insult. Withdrawal thresholds were determined weekly with von Frey fiber stimulation on the snout until experiment end.
Testing was done by an observer blinded to study group. Von Frey assessment of snout withdrawal threshold was conducted prior to and at least once a week after nerve injury to confirm development of craniofacial neuropathic pain. […]
(§1) Mechanical and cold sensitivity was modified for face as previously described (Montera M A, Westlund K N, Bio-protocol2020 April 20; 10(8):e3591-e3591; Lyons et al., Neuroscience 2015 Jun. 4; 295:126-138; Ma et al., Mol Brain 2012 Dec. 28; 5:44; Montera et al., Channels (Austin). 2021 December; 15(1):31-37). Briefly, animals were gently restrained and the mechanical threshold for nocifensive head withdrawal was determined using calibrated von Frey filaments (0.008 g-6.0 g) using the Up-Down method (Chaplan et al., J Neurosci Methods 1994 July; 53(1):55-63; FIG. 2). Cold sensitivity was determined by applying a 10° C. cold coil to the ION's receptive field and measuring the time until an animal withdrew its head (Montera et al., Channels (Austin). 2021 December; 15(1):31-37).

[2] = system: BALBc mice with FRICT-ION nerve injury; experiment: von Frey mechanical threshold, FRICT-ION trigeminal nerve injury model; conditions: male and female BALBc FRICT-ION mice, 5 mg/kg s.c. daily in week 3, vs vehicle
Text: The FRICT-ION chronic neuropathic pain model combines the chemical irritation of chromic gut suture with some physical compression of the maxillary branch (V2) of the trigeminal nerve. FRICT-ION model was induced in 9-week-old mice anesthetized briefly with isoflurane (2-3%). Intraoral surgical incision was made with a small scalpel puncture at the buccal cheek crease. A piece of chromic gut suture (3 mm length, 4-0) was placed parallel to the infraorbital nerve (ION) and pushed into the tight space to follow the trigeminal nerve as it passes into the foramen rotundum of the skull. The model simulates blunt force traumatic injury to the nerve, residual wound debris, or other irritation. […]
[…] Withdrawal thresholds were determined weekly with von Frey fiber stimulation on the snout. […]
as §1, with “Cold sensitivity was determined by applying a 10° C. cold coil to the ION's receptive field and measuring the time until an animal withdrew its head (Montera et al., Channels (Austin). 2021 December; 15(1):31-37).” left out

[3] = system: HDAC5 protein; experiment: Western blot of TG HDAC5 protein; conditions: for TG HDAC5 protein levels: LMK235 treatment
Method: Mice were euthanized with pentobarbital (FatalPlus, 480 mg/kg) and both ipsilateral and contralateral TG were removed. TG were washed immediately in PBS and stored at −80° C. Protein from TG tissue was extracted following homogenization using a pestle and 500 μL of 1× RIPA buffer (Thermo Fisher Scientific, Inc., Waltham, MA, Cat #89,900). Samples were put on a rocking shaker for two hours and then centrifuged, and the supernatant removed to a new tube. Sample was assayed for total protein (Bradford, Thermo Fisher Scientific, Inc., Waltham, MA). Samples were then prepared for electrophoresis by mixing with 2× sample buffer and boiling for five minutes at 100° C. for denaturation.
Proteins were loaded on a 12% Tris-Glycine polyacrylamide gradient gel (Bio-Rad Laboratories, Inc., Hercules, CA) and transferred to a PVDF membrane (MilliporeSigma, Burlington, MA). Membrane was blocked for an hour with 5% nonfat milk in TBST buffer at room temperature and incubated at 4° C. with anti-HDAC5 antibody overnight (Abcam, Cambridge, UK, #ab55403, #ab2772, #ab170935). The membrane was subsequently washed with TBST and then incubated with anti-rabbit secondary with HRP for one hour at room temperature (Abcam ab6721, diluted 1:1000 in TBST). The washing was repeated and then the blot developed with chemiluminescent substrate (Thermo Fisher Scientific, Inc., Waltham, MA Cat #32,106). The blot was then imaged using a Li-Cor Odyssey FC imaging system. Signal intensity was normalized to actin (Abcam ab8227, 1:2000) or tubulin (Abcam #ab10287), which was used as a loading control. Signal intensity was analyzed using ImageJ for comparisons.

SMILES: Cc1cc(C)cc(C(=O)NOCCCCCC(=O)NO)c1 [LMK235, N-[[6-(Hydroxyamino)-6-oxohexyl]oxy]-3,5-dimethyl-benzamide]
- mechanical threshold (von Frey), ipsilateral ([1]; C57BL/6 TIC mice, 5 mg/kg s.c., post-treatment 8 weeks after nerve injury, vs vehicle, 5 mg/kg): significantly reversed; also recorded: significantly increased the mechanical threshold
- mechanical threshold (von Frey), contralateral side ([1]; TIC mice treated in week 8): complete return to naïve baseline
- whisker pad mechanical threshold (von Frey) ([1]; male C57BL/6 TIC mice, 5 mg/kg s.c. daily for seven days in week 3, vs vehicle, 5 mg/kg): reversed to naïve baseline; also recorded: returned whisker pad mechanical threshold to naïve baseline
- time mechanical threshold remained at naïve baseline ([1]; male C57BL/6 TIC mice, 5 mg/kg s.c. daily in week 3): 4-6 weeks
- mechanical threshold / von Frey hypersensitivity [2]: reverses von Frey hypersensitivity; also recorded: restored mechanical threshold to baseline
- TG HDAC protein levels vs untreated FRICT-ION mice ([3]; LMK235-treated FRICT-ION mice, males and females): significantly lower
- TG HDAC5 protein levels ([3]; female FRICT-ION mice): to naïve levels
- TG HDAC5 protein levels ([3]; male FRICT-ION mice): below naïve levels
